Here are results for 2 compounds from PMC12579162, “Synthesized Depside Molecules Suppress the Progression of Colorectal Cancer by Binding VDAC1/PHB/MMP9 Being at the Crossroads of Stemness, Motility, Apoptosis, and Metabolism” (MedComm, 2025).

One experiment has as its system HEK293T cells. In words: MTT cell viability, HEK293T. In kind it is cell-based. The conditions noted are these: Homo sapiens, HEK-293T; 48 h, MTT assay. On the procedure: (§1) Cells (3 × 10^3 cells/well) were seeded on a 96‐well plate, grown overnight, and then treated with compounds at indicated concentrations for 48 h. After incubation with MTT for 4 h at 37°C, cells were lysed with 150 µL of DMSO (Sigma–Aldrich, St. Louis, USA). Absorbance was measured at 570 nm on a microplate reader with the Gen5 software (v.2.03.1; BioTek, Winooski, VT, USA).

The subject of the next experiment is DLD1 cells. In words: MTT cell viability, DLD1. The conditions noted are these: Homo sapiens, DLD-1; 48 h, MTT assay. Format: cell-based. On the procedure:
as §1

The test system of the next experiment is CT26 cells. In words: MTT cell viability, CT26. In kind it is cell-based. To be noted: Mus musculus, 48 h, MTT assay. On the procedure: as §1
Experiment [1] deals with CaCo2, DLD1, HT29, HCT116, and SW620 cells. Briefly: Cell cycle analysis by flow cytometry. The conditions noted are these: 10 µM, 48 h. In kind it is cell-based, human. On the procedure:
(§2) Cells were cultured in a six‐well plate at the density of 2 × 10^5 cells/well until adherence. Cells were treated with DMSO or compound for 48 h. Apoptosis or cell cycle experiments were then performed. For apoptosis analysis, cells were harvested and washed with PBS, resuspended in 100 µL of 1× binding buffer followed by staining with 4 µL of Annexin V–FITC (BD, Biosciences, San Jose, CA, USA), and 8 µL of 50 µg/mL propidium iodide (PI; BD Biosciences, San Jose, CA, USA) for 30 min in the dark. For cell cycle analysis, cells were washed with FACS washing buffer, incubated with trypsin solution, followed by RNase A for 10 min at room temperature. Cells were centrifuged and pellets were collected and stained with 100 µL of 4 mg/mL PI (Sigma–Aldrich) for 2 h in the dark at 4°C. Cells were detected by flow cytometry on a CytoFLEX instrument (Beckman Coulter Life Sciences, Indianapolis, IN, USA).

The subject of the next experiment is CRC cell lines. In words: Apoptosis / cell death analysis. In kind it is cell-based, human. On the procedure:
as §2

The test system of experiment [2] is CSC221, DLD1, CaCo2, HT29, HCT116, and SW620 cells. Briefly: Seahorse XF Cell Mito Stress Test. The conditions noted are these: 5 µM, 48 h. In kind it is cell-based, human. On the procedure: Seahorse XF96 extracellular flux analyzer (Agilent, Santa Clara, CA, USA) was used for glycolytic rate and cell mito stress test assays. Cells were seeded at 1 × 10^4 cells/well, incubated overnight in culture medium (2% FBS), and then treated with DMSO or compound for 48 h. The plated cells were twice washed and loaded (180 µL) with assay media enhanced with glutamine, sodium pyruvate, and glucose on the day of analysis. Before analysis, the cells were incubated for 1 h at 37°C in a non‐CO2 incubator. Then, cell mito stress, mito tox, or glycolytic rate assay was tested. Agilent Seahorse XF Mito Stress Test Kit was utilized in accordance with Agilent Seahorse's standard methodology. This test examines the OCR of cells directly, which provides important information on mitochondrial function. First, 1 µM oligomycin (inhibits ATP synthase) was injected. The second injection was FCCP (1 µM), an uncoupling agent that compresses the proton gradient and disturbs the mitochondrial membrane potential. Last injection with 0.5 µM Rotenone (Rot; a complex I inhibitor) + antimycin A (AA; a complex III inhibitor) was loaded for OCR analysis. Agilent Seahorse XF Glycolytic Rate Assay was utilized in accordance with Agilent Seahorse's standard methodology. […] The results were analyzed using the Wave software (Agilent).

For the next experiment, the system named is SW620 cells. In words: MTT cell viability, SW620. Format: cell-based. To be noted: Homo sapiens, SW-620; 48 h, MTT assay. On the procedure: as §1
A further experiment has as its system HCT116 cells. In words: MTT cell viability, HCT116. In kind it is cell-based. To be noted: Homo sapiens, HCT-116; 48 h, MTT assay. On the procedure: as §1
The test system of the next experiment is NIH3T3 cells. In words: MTT cell viability, NIH3T3. Format: cell-based. The conditions noted are these: Mus musculus, 48 h, MTT assay. On the procedure: as §1
In experiment [3] the test system is MMP9 promoter in HEK293T cells. In words: MMP9 promoter reporter assay. Format: cell-based, human. To be noted: 2.5 and 5 µM, 24 h. On the procedure: HEK293T was plated in a 24-well plate, left to attach, and then transfected with 100 ng of AP-1, STAT, Gli, CSL, TOPFLASH (with 100 ng β-catenin), NF-kB, Hes-1 and MMP9 reporter plasmids with 2 ng of Renilla-luc (pRL-TK) plasmid. MMP9 reporter assays were tested by stimulating Gli1-Flag, Gli2-Flag, ΔEN1-Myc, and MYC-flag plasmids. Transfections were performed using the X-treme GENE 9 DNA transfection reagent (Roche, Werk Penzberg, Germany). After 24 hours transfection, cells were treated with compounds or DMSO and incubated for 24 h at 37 °C under 5% CO2. The Dual-Luciferase reporter assay system (Promega, Madison, WI, USA) was used.

For the compound `COCCOc1c(C)c(OC(=O)c2c(C)cc(OC)c(C)c2OC)cc(C)c1C(=O)OC` [SB4, 4-(Methoxycarbonyl)-3-(2-methoxyethoxy)-2,5-dimethylphenyl 2,4-dimethoxy-3,6-dimethylbenzoate], the IC50 was 19 µM with HEK293T cells; 4.08 µM in the experiment with DLD1 cells; 5.33 µM with CT26 cells; 5.33 µM in the experiment with SW620 cells; 11.7 µM in the experiment with HCT116 cells; 121 µM in the experiment on NIH3T3 cells. The cell-cycle distribution entry in experiment [1] was “induced Sub G1 and G2/M populations while G1 population decreased”. The “concentration with cell death ability” value in the experiment on CRC cell lines is about 10 µM. For the same compound, in [2], the “oxygen consumption rate (OCR)” value is “dramatically suppresses the oxygen consumption rate (OCR)”. The MMP9 promoter activity result in [3] was “downregulated”.
For `COCCCOc1c(C)c(OC(=O)c2c(C)cc(OC)c(C)c2OC)cc(C)c1C(=O)OC` [SB5, 4-(Methoxycarbonyl)-3-(3-methoxypropoxy)-2,5-dimethylphenyl 2,4-dimethoxy-3,6-dimethylbenzoate], the IC50 in the experiment with HEK293T cells was determined as 63.2 µM; in the experiment on DLD1 cells, 57.8 µM; in the experiment on CT26 cells, 2.27 µM; with SW620 cells, 2.27 µM; in the experiment on HCT116 cells, 4.5 µM; in the experiment with NIH3T3 cells, 112 µM. For the same compound, the cell-cycle distribution entry in experiment [1] is “induced Sub G1 and G2/M populations while G1 population decreased”. In the experiment on CRC cell lines, the “concentration with cell death ability” value was about 10 µM. In [2], the “oxygen consumption rate (OCR)” value is listed as “dramatically suppresses the oxygen consumption rate (OCR)”. For the same compound, in [3], the MMP9 promoter activity result is reported as “downregulated”.
